Laboratory results published in patent US11230524B2, “Myocyte enhancer factor 2 (MEF2) modulators” (STANDARD LLC, priority 2017, dated 2022).
Structures can show the parent of a compound that is named as a salt.

Experiments:
Assay type in all cases: cell-based
[1] = target: MEF2D/p300 protein-protein interactions (Homo sapiens (Human), UniProt Q14814); test: Mammalian two-hybrid assay, inhibition of MEF2D and P300 protein interactions (luciferase reporter in HeLa cells); settings: HeLa cells co-transfected with GAL4-MEF2D, P300-VP16 and Gal4Luc
From the text: Detection of MEF2D and P300 interactions. The same system that was used in Example 19 is used in here to detect MEF2D and P300 interactions. In this assay, two separate DNA constructs were made with MEF2D fused with the GAL4 DNA binding domain (GAL4-MEF2D) and P300 fused with the viral transactivator VP-16 ([…]). Human epithelial carcinoma cells (HeLa) were co-transfected with the two DNA constructs (GAL4-MEF2D and P300-VP16) and a reporter plasmid (Gal4Luc). […] MEF2D and P300 protein interactions were detected as a result of the GAL4-MEF2D and P300-VP16 protein complex binding a DNA promoter on the reporter plasmid (Gal4Luc) and driving cellular expression of a luciferase gene. The measured luciferase protein signal was proportional to the amount of MEF2D and P300 protein interactions occurring with the cell.
The relative activity and IC50 calculations. The IC50 concentrations were calculated in the same manner as described for Example 19.

[2] = target: MEF2D/HDAC4 protein-protein interactions (Homo sapiens (Human), UniProt Q14814); test: Mammalian two-hybrid assay, inhibition of MEF2D and HDAC4 protein interactions (luciferase reporter in HeLa cells); settings: HeLa cells co-transfected with GAL4-MEF2D, HDAC4-VP16 and Gal4Luc; overnight treatment; luciferase normalized to Renilla
From the text: Detection of MEF2D and HDAC4 interactions. In this mammalian two-hybrid assay, HDAC4 and MEF2D proteins were used. […] Human epithelial carcinoma cells (HeLa) were co-transfected with the two DNA constructs (GAL4-MEF2D and HDAC4-VP16) and a reporter plasmid (Gal4Luc). […] MEF2D and HDAC4 protein interactions were detected as a result of the GAL4-MEF2D and HDAC4-VP16 protein complex binding a DNA promoter on the reporter plasmid (Gal4Luc) and driving cellular expression of a luciferase gene. The measured luciferase protein signal was proportional to the amount of MEF2D and HDAC4 protein interactions occurring with the cell.
The HDAC4 fragment lacked the catalytic domain so that the deacetylase activity was excluded from the assay.
Detection of inhibition of MEF2D and HDAC4 interactions. Next, the assay was used to test whether the compounds could disrupt the interactions between MEF2D and HDAC4. After co-expressing the GAL4-MEF2D and HDAC4-VP16 DNA constructs and reporter plasmid, the HeLa cells were treated with a test compound (10 μM) overnight. Cells transfected with the positive control GAL4VP16 fusion construct and reporter plasmid were also treated with the test compound (10 μM) overnight. As another control, DMSO was added (but kept below 0.2% V/V) to cells transfected with the positive GAL4VP16 fusion construct or the GAL4-MEF2D and HDAC4-VP16 DNA constructs. A luciferase assay was performed as described above according to the manufacturer's protocol (Promega). The luciferase response was normalized against the Renilla Luciferase as an internal control.
The relative activity and IC50 calculations. […] The relative activity, I, was the ratio of former to later, i.e. X/Y, expressed in percentile. […] The IC50 was the concentration of the compounds when X/Y equals 50.

[3] = tested on: neonatal rat ventricular myocytes (NRVMs); test: Inhibition of fetal calf serum induced cardiomyocyte hypertrophy in vitro; settings: serum-starved NRVMs, 5% FCS, myocyte size 48 hours after treatment, concentration reducing FCS-induced hypertrophy by 50%; for IC50: Rattus norvegicus, Ventricular myocyte
Method: To evaluate the ability of the test compounds to inhibit cardio myocyte hypertrophy in vitro, serum-starved neonatal rat ventricular myocytes (NRVMs) were exposed to medium with 5% Fetal Calf Serum (FCS), a powerful activator of myoctye growth (hypertrophy) and treated with one of the compounds at doses ranging from 0.2-10 μM or with the vehicle (dimethyl sulfoxide (DMSO)). Control cells received fresh media without serum. The myocyte size was determined 48 hours after treatment. The results in Table 7 show the concentrations of the test compounds required to reduce the FCS-induced hypertrophy in the NRVMs by 50% (IC50 μM).

Chain of MEF2D/HDAC4 protein-protein interactions (Q14814 whole entry, species assumed, the tested form may be a part): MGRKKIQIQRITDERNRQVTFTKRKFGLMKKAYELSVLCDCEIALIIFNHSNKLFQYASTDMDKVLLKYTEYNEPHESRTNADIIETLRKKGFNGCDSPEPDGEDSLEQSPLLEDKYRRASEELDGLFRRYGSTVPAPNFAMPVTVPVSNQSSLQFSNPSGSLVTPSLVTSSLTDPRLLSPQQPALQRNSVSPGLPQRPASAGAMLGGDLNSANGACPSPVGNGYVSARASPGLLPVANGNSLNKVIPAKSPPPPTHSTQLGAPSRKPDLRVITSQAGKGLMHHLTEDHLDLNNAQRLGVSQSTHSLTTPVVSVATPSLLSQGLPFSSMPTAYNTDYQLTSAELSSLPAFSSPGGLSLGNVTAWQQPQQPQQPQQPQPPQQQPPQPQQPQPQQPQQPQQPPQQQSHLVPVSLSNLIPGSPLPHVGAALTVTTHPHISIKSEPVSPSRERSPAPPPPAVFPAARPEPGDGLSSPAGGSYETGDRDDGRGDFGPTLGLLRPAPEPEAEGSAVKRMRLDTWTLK
Chain of MEF2D/p300 protein-protein interactions (Q14814 whole entry, species assumed, the tested form may be a part): as above

| Structure (SMILES) | IC50 [1] | IC50 [2] | IC50 [3] | IC50, inhibition of cardiomyocyte hypertrophy in vitro [3] |
| --- | --- | --- | --- | --- |
| CCOC(=O)NC(CCCCC(=O)Nc1ccccc1N)C(=O)Nc1cccc(OC2CC2)c1 (centres unmarked) [ST83, ethyl (7-((2-aminophenyl)amino)-1-((3-cyclopropoxyphenyl)amino)-1,7-dioxoheptan-2-yl)carbamate] | 0.44 µM | 0.84 µM | 3.85 µM |  |
| CCC(=O)NC(CCCCC(=O)Nc1ccccc1N)C(=O)Nc1cccc(Br)c1 (centres unmarked) [ST89] | 0.071 µM | 0.77 µM |  |  |
| COC(=O)NC(CCCCC(=O)Nc1ccccc1N)C(=O)Nc1cccc2cccnc12 (centres unmarked) [ST119, methyl (7-((2-aminophenyl)amino)-1,7-dioxo-1-(quinolin-8-ylamino)heptan-2-yl)carbamate] | 0.14 µM | 0.39 µM | 0.079 µM |  |
| COC(=O)NC(CCCCC(=O)Nc1ccccc1N)C(=O)Nc1cccc(OCC(F)(F)F)c1 (centres unmarked) [ST102, methyl (7-((2-aminophenyl)amino)-1,7-dioxo-1-((3-(2,2,2-trifluoroethoxy)phenyl)amino)heptan-2-yl)carbamate hydrochloride] | 1.2 µM | 0.94 µM | 0.71 µM |  |
| CCOC(=O)NC(CCCCC(=O)NCc1cncc(OCC)c1)C(=O)NCc1cncc(OCC)c1 (centres unmarked) [ST129] | 20 µM | 20 µM |  | no inhibition |
| Nc1ccccc1NC(=O)CCCCC(NC(=O)c1ccccc1)C(=O)Nc1cccc(Br)c1 (centres unmarked) [ST92, N^7-(2-aminophenyl)-2-benzamido-N^1-(3-bromophenyl)heptanediamide] | 0.47 µM | 0.81 µM |  |  |
| Cc1[nH]c2ccccc2c1CCNCc1cccc(/C=C/C(=O)Nc2ccccc2N)c1 [ST49, (E)-N-(2-aminophenyl)-3-(3-(((2-(2-methyl-1H-indol-3-yl)ethyl)amino)methyl)phenyl)acrylamide] |  |  | 1.23 µM |  |
| CCOC(=O)N[C@@H](CCCCC(=O)Nc1ccccc1N)C(=O)Nc1cccc(Br)c1 [ST104, (S)-ethyl (7-((2-aminophenyl)amino)-1-((3-bromophenyl)amino)-1,7-dioxoheptan-2-yl)carbamate] | 0.38 µM | 0.47 µM | 2.89 µM |  |
| Nc1ccccc1NC(=O)/C=C/c1cccc(CNc2ccc3ccccc3c2)c1 [ST54, (E)-N-(2-aminophenyl)-3-(3-((naphthalen-2-ylamino)methyl)phenyl) Acrylamide] |  |  | 1.16 µM |  |
| COC(=O)NC(CCCCC(=O)Nc1ccccc1N)C(=O)Nc1nc(-c2ccncc2)cs1 (centres unmarked) [ST116, methyl (7-((2-aminophenyl)amino)-1,7-dioxo-1-((4-(pyridin-4-yl)thiazol-2-yl)amino)heptan-2-yl)carbamate] | 0.27 µM | 0.57 µM | 4400 µM |  |
| O=C(/C=C/c1cccc(CNc2cccc(OCC(F)F)c2)c1)NO [ST45] |  | 0.56 µM |  |  |
| Cc1csc(NCc2cccc(/C=C/C(=O)NO)c2)n1 [ST78] |  | > 20 µM |  |  |
| CCN(CC)c1cccc(NCc2cccc(/C=C/C(=O)NO)c2)c1 [ST41] |  | 1.16 µM |  |  |
| O=C(/C=C/c1cccc(C(=O)Nc2nc(-c3ccncc3)cs2)c1)NO [ST69] |  | 0.98 µM |  |  |
| O=C(/C=C/c1cccc(CNc2ccc(F)cc2F)c1)NO [ST25] |  | 0.95 µM |  |  |
| O=C(/C=C/c1cccc(CNc2cccc(OC3COC3)c2)c1)NO [ST31] |  | 0.56 µM |  |  |
| CN(C)c1cccc(NCc2cccc(/C=C/C(=O)NO)c2)c1 [ST33] |  | 0.37 µM |  |  |
| Cc1[nH]c2ccccc2c1CCNc1cccc(/C=C/C(=O)NO)c1 [ST71] |  | 0.27 µM |  |  |
| COC(=O)NC(CCCCC(=O)Nc1ccccc1N)C(=O)Nc1cccc(SC)c1 (centres unmarked) [ST85, methyl (7-((2-aminophenyl)amino)-1-((3-(methylthio)phenyl)amino)-1,7-dioxoheptan-2-yl)carbamate] | < 0.15 µM | 0.47 µM |  |  |
| COc1cccc(NCc2cc(F)cc(/C=C/C(=O)NO)c2)c1 [ST44] |  | 0.38 µM |  |  |
| CCCC(=O)N[C@@H](CCCCC(=O)NO)C(=O)Nc1cccc(Br)c1 [ST108] |  | 0.4 µM |  |  |
| CCOC(=O)NC(CCCCC(=O)NO)C(=O)Nc1cccc(Br)c1 (centres unmarked) [ST113] |  | 0.26 µM |  |  |

More lines, main results first:

| IC50 [1] | IC50 [2] | Structure (SMILES) | IC50 [3] | IC50, inhibition of cardiomyocyte hypertrophy in vitro [3] |
| --- | --- | --- | --- | --- |
| 0.51 µM | 4.53 µM | Nc1ccccc1NC(=O)/C=C/c1cccc(CNc2ccc3ncccc3c2)c1 [ST55, (E)-N-(2-aminophenyl)-3-(3-((quinolin-6-ylamino)methyl)phenyl)acrylamide] | 9.26 µM |  |
| 1.69 µM | 2.48 µM | Cc1csc(NCc2cccc(/C=C/C(=O)Nc3ccccc3N)c2)n1 [ST66, (E)-N-(2-aminophenyl)-3-(3-((4-methylthiazol-2-ylamino)methyl)phenyl)acrylamide] | 1420 µM |  |
| 1.6 µM | 1.6 µM | Nc1ccccc1NC(=O)/C=C/c1cccc(CNc2cccc(OC3CC3)c2)c1 [ST7, (E)-N-(2-aminophenyl)-3-(3-(((3-cyclopropoxyphenyl)amino)methyl)phenyl)acrylamide] | 0.46 µM |  |
| 1.08 µM | 0.61 µM | Nc1ccccc1NC(=O)CCCCC(NC(=O)c1cccnc1)C(=O)Nc1cccc(Br)c1 (centres unmarked) [ST93, N^7-(2-aminophenyl)-N^1-(3-bromophenyl)-2-(nicotinamido)heptanediamide] | 5500 µM |  |
| 0.79 µM | 1.52 µM | Nc1ccccc1NC(=O)/C=C/c1cccc(CNCc2cccc(OC3CC3)c2)c1 [ST13] | 0.12 µM |  |
| 0.94 µM | 1.52 µM | Nc1ccccc1NC(=O)/C=C/c1cccc(CNCc2cccc(OC3CCC3)c2)c1 [ST14] | 0.15 µM |  |
| 1.1 µM | 1.07 µM | CCOc1cccc(NCc2cccc(/C=C/C(=O)Nc3ccccc3N)c2)c1 [ST4, (E)-N-(2-aminophenyl)-3-(3-(((3-ethoxyphenyl)amino)methyl)phenyl)acrylamide] | 4.37 µM |  |
| 0.38 µM | 9.4 µM | Nc1ccccc1NC(=O)/C=C/c1cccc(CNc2ccccc2)c1 [ST1, (E)-N-(2-aminophenyl)-3-(3-((phenylamino)methyl)phenyl)acrylamide] | 0.81 µM |  |
|  | 1.56 µM | Nc1ccccc1NC(=O)CCCCC(NC(=O)c1ccccc1)C(=O)Nc1cccnc1 (centres unmarked) [ST120] |  |  |
|  | 1.55 µM | O=C(/C=C/c1cccc(CNc2cccnc2)c1)NO [ST72] |  |  |
|  | 3.36 µM | COc1cccc(NCc2ccc(F)c(/C=C/C(=O)Nc3ccccc3N)c2)c1 [ST12] |  |  |
|  | 5.22 µM | Nc1ccccc1NC(=O)/C=C/c1cccc(CNc2cccc3cccnc23)c1 [ST56] |  |  |
|  | > 20 µM | Nc1ccccc1NC(=O)/C=C/c1cccc(CNc2nc(-c3ccc(F)cc3)cs2)c1 [ST52] |  |  |
| 2.73 µM | 1.85 µM | Nc1ccccc1NC(=O)/C=C/c1cccc(CNc2nc(C(F)(F)F)co2)c1 [ST63, (E)-N-(2-aminophenyl)-3-(3-((4-(trifluoromethyl)oxazol-2-ylamino)methyl)phenyl)acrylamide] | 4.2 µM |  |
|  | 4.87 µM | COc1cccc(NCc2cccc(/C=C/C(=O)Nc3ccccc3N)c2)c1 [ST3] |  |  |
|  | 1.49 µM | Nc1ccccc1NC(=O)/C=C/c1cccc(CNc2nccc(-c3cccnc3)n2)c1 [ST47] |  |  |
|  | 5.94 µM | Nc1ccccc1NC(=O)/C=C/c1cccc(CNc2cccc(Br)c2)c1 [ST2] |  |  |
|  | 3.13 µM | Cc1cnc(NCc2cccc(/C=C/C(=O)Nc3ccccc3N)c2)s1 [ST59] |  |  |
|  | 2.1 µM | Nc1ccccc1NC(=O)/C=C/c1cccc(NC(=O)OCc2cccnc2)c1 [ST68] |  |  |
